The values that follow come from ChEMBL document CHEMBL3414444, “Antiplasmodial activity: the first proof of inhibition of heme crystallization by marine isonitriles” (Eur J Med Chem, 2015).

The test system of series [1] is Plasmodium falciparum. Nature of the series: Antiplasmodial activity against Plasmodium falciparum K1. The series is classed as functional, organism-based.
Series [2] concerns Plasmodium falciparum. As to the kind of experiment: Antiplasmodial activity against Plasmodium falciparum W2. Format: functional, organism-based.
Series [3] is described as follows: Inhibition of beta-hematin formation after 3 to 5 mins by EBHIA assay. The series is classed as physicochemical.
Series [4] concerns Plasmodium falciparum. Nature of the series: Antiplasmodial activity against Plasmodium falciparum D6. The series is classed as functional, organism-based.
Series [5] relates to Plasmodium falciparum. Nature of the series: Antiplasmodial activity against Plasmodium falciparum NF54. The series is classed as functional, organism-based.

The term IC50 denotes the midpoint of a concentration-inhibition curve. A low value points to inhibition by little substance. `[C-]#[N+][C@@]1(C)CC[C@H]2[C@H]3[C@@H]4[C@H](C[C@@H](C)[C@@](C)(N=C=O)[C@H]4CC[C@@H]31)C[C@@H]2C` returned a half-maximal inhibitory concentration (IC50) in the series with Plasmodium falciparum [1] of 9 nM.
In the case of `[C-]#[N+][C@@]1(C)CC[C@H]2[C@H]3[C@H]4C(=CC(C)(C)C[C@@H]4C[C@@H]2C)CC[C@@H]31`, the IC50 in the series on Plasmodium falciparum [2] was 24 nM; in the series on Plasmodium falciparum [4] it was 84 nM; with Plasmodium falciparum [1] it was 24 nM. The “inhibition (INH)” value in series [3] is given as 26%.
Turning to `CC(C)=CCC[C@@H](C)[C@H]1CC[C@](C)(N=C=S)[C@H]2CCC(C)=C[C@H]12`, the 50% inhibitory concentration (IC50) in the series on Plasmodium falciparum [1] was above 30000 nM.
Consider `[C-]#[N+][C@]1(C)CC[C@H](/C(C)=C\C=C\C(C)C)CC1`, for which the “inhibition (INH)” value in series [3] is on record as 62%.
`CC1=CC2C(CC1)[C@](C)(N=C=S)CC[C@@H]2C(C)C` (stereo partly drawn): the “inhibition (INH)” value in series [3] is 71%. The IC50 in the series with Plasmodium falciparum [5] and in the series with Plasmodium falciparum [1] was 5700 nM throughout.
The molecule `[C-]#[N+][C@@]1(C)CC[C@H]2[C@H]3[C@@H](C(=C)CC[C@@H]31)[C@@H](C=C(C)C)C[C@@H]2C` had an IC50 with Plasmodium falciparum [2] of 423 nM. Also, the “inhibition (INH)” value in series [3] worked out at 14%.
Consider `CCN(CC)CCCC(C)Nc1ccnc2cc(Cl)ccc12` (stereo not drawn) [CHLOROQUINE], for which, in series [3], the “inhibition (INH)” value came out at 4%.
